Earlier results on 2 molecules are cited in patent US10028900B2, “Photostable sunscreen composition for topical application” (KANCOR INGREDIENTS LTD, priority 2014, dated 2018).

For the data set the following is noted: oil / water.

Structures are written as SMILES.

Take `COc1ccc(C(=O)CC(=O)c2ccc(C(C)(C)C)cc2)cc1` [Avobenzone, 1-(4-methoxyphenyl)-3-(4-tert-butylphenyl)propane-1,3-dione]: the “Solubility (in words)” value was “oil soluble and water insoluble”.

With `CCCCC(CC)COC(=O)/C=C/c1ccc(OC)cc1` (centres unmarked) [Octyl-methoxy cinnamate, 2-ethylhexyl (2E)-3-(4-methoxyphenyl) prop-2-enoate], the “Solubility (in words)” value was “oil soluble and water insoluble”.
